This is an account of results in ChEMBL document CHEMBL4680250, “Identification of tetracyclic lactams as NMDA receptor antagonists with potential application in neurological disorders” (Eur J Med Chem, 2020).

As usually defined, the pIC50 is the negative decadic logarithm of the IC50, by convention in mol/L. Usually pKi stands for the Ki on a negative log10 scale, so that one unit is a factor of ten. A higher pKi goes with a small Ki.

Series [1] concerns HEK293. Put plainly: Cytotoxicity against HEK293 cells assessed as reduction in cell viability by MTT assay. In kind it is cell-based. Particulars: Homo sapiens; call rule not given here. In general terms: Tetrazolium dyes change colour on reduction, which living cells bring about.
The target of series [2] is Glutamate NMDA receptor. Put plainly: Antagonist activity at NMDAR in embryonic cultures of rat cortical neuron assessed as inhibition of NMDA-induced calcium influx at 30 uM preincubated for 10 mins followed by NMDA addition by Fluo-4/AM dye based fluorescence assay relative to control. In kind it is tissue-based. The note with it: for pIC50: read-out: IC50.
The subject of series [3] is HepG2. Put plainly: Cytotoxicity against human HepG2 cells assessed as reduction in cell viability by MTT assay. Format: cell-based.
Series [4] in a line: Permeability of compound in PBS at pH 7.4 incubated for 120 mins by UV spectroscopy assay based PAMPA-BBB assay. Format: ADME. Particulars: read-out: permeability. (In general: The PAMPA barrier holds no transporters, so it reflects passive diffusion.)
Series [5] concerns the target Glutamate NMDA receptor. The series can be described thus: Antagonist activity at NMDAR in embryonic cultures of rat cortical neuron assessed as inhibition of NMDA-induced calcium influx preincubated for 10 mins followed by NMDA addition by Fluo-4/AM dye based fluorescence assay. Format: tissue-based.
Series [6] deals with Glutamate [NMDA] receptor. Put plainly: Binding affinity to NMDAR (unknown origin). Format: protein-complex assay, Homo sapiens.

Each structure is given as a SMILES string. pIC50, pKi: −log10 of the molar value.

On to `O=C1CC[C@@]2(c3ccc(F)cc3)O[C@@H]3Cc4ccccc4[C@@H]3N12`, for which the pIC50 was less than 4.00 in series [1], 4.25 in series [2], less than 4.00 in series [3] and 4.77 in series [5]. Moreover, the Papp at 2 h in series [4] amounted to 24.2 ×10⁻⁶ cm/s.

Regarding `C[C@@H]1CC(=O)N2[C@H]3c4ccccc4C[C@@H]3O[C@@]12c1ccc(Cl)cc1`, the pIC50 in series [2] was 4.49.

Consider `C[C@H]1CC(=O)N2[C@H]3c4ccccc4C[C@H]3O[C@]12c1ccc(Cl)cc1`, for which the pIC50 in series [1] is less than 4.00; in series [2], 4.10; in series [3], less than 4.00; in series [5] it was 4.77.

With `Cc1ccc([C@@]23CCC(=O)N2[C@H]2c4ccccc4C[C@H]2O3)cc1`, the pIC50 in series [2] is 4.34; in series [5], 4.62.

Turning to `C[C@H]1CC(=O)N2[C@H]3c4ccccc4C[C@@H]3O[C@@]12c1ccc(Cl)cc1`, the pIC50 in series [2] was 4.21; in series [5], 4.64.

In the case of `O=C1CC[C@]2(c3ccc(F)cc3)O[C@H]3Cc4ccccc4[C@@H]3N12`, the pIC50 is less than 4.00 in series [1], 4.21 in series [2], less than 4.00 in series [3] and 4.82 in series [5].

As to `C[C@@H]1CC(=O)N2[C@H]3c4ccccc4C[C@H]3O[C@]12c1ccc(Cl)cc1`, the pIC50 in series [1] was 4.34; in series [2], 4.16; in series [3] it was 4.47; in series [5], 4.89.

`c1ccc2c(c1)C[C@H]1N[C@@H]2c2ccccc21` had a pKi in series [6] of 7.43.

Take `COc1ccc([C@@]23CCC(=O)N2[C@H]2c4ccccc4C[C@H]2O3)cc1`: in series [2], the pIC50 was 5.40.

Regarding `CS(=O)(=O)c1ccc([C@@]23CCC(=O)N2[C@H]2c4ccccc4C[C@H]2O3)cc1`, in series [2], the IC50 entry is on record as “Not Active”.

For `O=C1CC[C@@]2(c3ccc(Cl)cc3)O[C@@H]3Cc4ccccc4[C@@H]3N12`, the pIC50 in series [1] was less than 4.00; in series [2] it was 4.09; in series [3], less than 4.00; in series [5] it was 4.77. Besides, in series [4], the Papp at 2 h came to 19.2 ×10⁻⁶ cm/s.

On to `CC[C@@]1(c2ccccc2Cl)CCCCC1=O`, for which the pKi in series [6] is 6.18.

As to `O=C1CC[C@]2(c3ccc(Cl)cc3)O[C@H]3Cc4ccccc4[C@@H]3N12`, the pIC50 in series [1] was less than 4.00; in series [2], 4.19; in series [3], less than 4.00; in series [5], 4.89. For the same molecule, the Papp at 2 h in series [4] worked out at 15.8 ×10⁻⁶ cm/s.

As for `O=C1CC[C@@]2(c3ccc(Br)cc3)O[C@@H]3Cc4ccccc4[C@@H]3N12`, the pIC50 was less than 4.00 in series [1], 4.14 in series [2], less than 4.00 in series [3] and 4.80 in series [5]. Also, the Papp at 2 h in series [4] amounted to 12.3 ×10⁻⁶ cm/s.

Regarding `O=C1CC[C@]2(c3ccc(Br)cc3)O[C@H]3Cc4ccccc4[C@@H]3N12`, the pIC50 is less than 4.00 in series [1], 4.18 in series [2], less than 4.00 in series [3] and 4.96 in series [5]. Also, the Papp at 2 h in series [4] is 11.2 ×10⁻⁶ cm/s.

For the molecule `O=C1CC[C@@]2(c3ccccc3)O[C@H]3Cc4ccccc4[C@@H]3N12`, in series [2], the pIC50 was 4.54.

For the molecule `Cc1ccc([C@@]23CCC(=O)N2[C@H]2c4ccccc4C[C@H]2O3)cc1Cl`, the pIC50 in series [1] is less than 4.00; in series [2] it was 4.20; in series [3], less than 4.00; in series [5], 4.92.

Turning to `O=C1CCC[C@@]2(c3ccccc3)O[C@@H]3Cc4ccccc4[C@@H]3N12`, in series [2], the pIC50 is 4.89.

Consider `COc1ccc([C@@]23CCC(=O)N2[C@H]2c4ccccc4CC2O3)cc1F` (single isomer, unassigned), for which the pIC50 in series [2] is 4.89.

As to `Cc1ccc([C@]23CCC(=O)N2C2c4ccccc4C[C@@H]2O3)cc1Cl` (single isomer, unassigned), the pIC50 in series [2] is 4.31.

In series [6], `N[C@@H](Cc1ccccn1)c1ccccc1` [LANICEMINE] showed a pKi of 6.25.

As to `c1ccc(C2(N3CCCCC3)CCCCC2)cc1` [PHENCYCLIDINE], in series [6], the pKi was 7.23.
